Experimental data published in the supplement of paper PMC10307832.

Tests used:
Assay in all cases: relative viability (nuclei count vs DMSO), 5 days (fraction); higher = more cells survive
[1] = system: NCI-H1915
Summary of the method: (§1)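 Lung cancer cell lines in 1536-well plates were dosed by pin tool the day after seeding, either with one drug alone or with a fixed anchor-drug dose plus five library-drug doses (not always all listed) in √10 steps. After 5 days, cells were fixed and their nuclei stained in one step (final 0.05% Triton X-100, 1% formaldehyde, 1 ug/ml Hoechst), then counted on 4× images. Relative viability is the nuclei count in treated wells divided by that in vehicle wells. Values are medians of duplicate plates.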

[2] = system: NCI-H2347
Summary of the method: as §1

[3] = system: UMC-11
Summary of the method: as §1

[4] = system: HCC-44
Summary of the method: as §1

[5] = system: LC-2-ad
Summary of the method: as §1

[6] = system: COR-L23
Summary of the method: as §1

[7] = system: NCI-H1651
Summary of the method: as §1

[8] = system: NCI-H2023
Summary of the method: as §1

[9] = system: LU99A
Summary of the method: as §1

[10] = system: PC-14
Summary of the method: as §1

[11] = system: HOP-62
Summary of the method: as §1

[12] = system: SW 1573
Summary of the method: as §1

[13] = system: NCI-H838
Summary of the method: as §1

[14] = system: NCI-H1993
Summary of the method: as §1

[15] = system: EPLC-272H
Summary of the method: as §1

[16] = system: NCI-H2126
Summary of the method: as §1

[17] = system: ABC-1
Summary of the method: as §1

[18] = system: NCI-H1355
Summary of the method: as §1

[19] = system: NCI-H2085
Summary of the method: as §1

[20] = system: HARA
Summary of the method: as §1

[21] = system: HCC-15
Summary of the method: as §1

[22] = system: NCI-H650
Summary of the method: as §1

Structure (SMILES): COc1cc2nccc(Oc3ccc(NC(=O)Nc4cc(C)on4)c(Cl)c3)c2cc1OC [Tivozanib] + CCNC(=O)c1noc(-c2cc(C(C)C)c(O)cc2O)c1-c1ccc(CN2CCOCC2)cc1 [Luminespib] (partner 0.01 µM)
- relative viability ([1]; first compound 0.005 µM): 0.719
- relative viability ([1]; first compound 0.01581 µM): 0.855
- relative viability ([1]; first compound 0.05 µM): 0.848
- relative viability ([1]; first compound 0.1581 µM): 0.799
- relative viability ([1]; first compound 0.5 µM): 0.8
- relative viability ([2]; first compound 0.01581 µM): 0.488
- relative viability ([2]; first compound 0.05 µM): 0.886
- relative viability ([2]; first compound 0.5 µM): 0.249
- relative viability ([3]; first compound 0.005 µM): 1.03
- relative viability ([3]; first compound 0.01581 µM): 0.975
- relative viability ([3]; first compound 0.05 µM): 1.03
- relative viability ([3]; first compound 0.5 µM): 1.06
- relative viability ([4]; first compound 0.005 µM): 1.01
- relative viability ([4]; first compound 0.01581 µM): 1.06
- relative viability ([4]; first compound 0.05 µM): 0.927
- relative viability ([4]; first compound 0.1581 µM): 1.19
- relative viability ([4]; first compound 0.5 µM): 1.08
- relative viability ([5]; first compound 0.005 µM): 1.03
- relative viability ([5]; first compound 0.01581 µM): 1.19
- relative viability ([5]; first compound 0.05 µM): 0.993
- relative viability ([5]; first compound 0.1581 µM): 0.945
- relative viability ([5]; first compound 0.5 µM): 0.879
- relative viability ([6]; first compound 0.005 µM): 0.62
- relative viability ([6]; first compound 0.01581 µM): 0.607
- relative viability ([6]; first compound 0.05 µM): 0.748
- relative viability ([6]; first compound 0.1581 µM): 0.597
- relative viability ([6]; first compound 0.5 µM): 0.532
- relative viability ([7]; first compound 0.005 µM): 0.86
- relative viability ([7]; first compound 0.01581 µM): 0.638
- relative viability ([7]; first compound 0.05 µM): 0.842
- relative viability ([7]; first compound 0.1581 µM): 0.883
- relative viability ([7]; first compound 0.5 µM): 0.931
- relative viability ([8]; first compound 0.005 µM): 0.664
- relative viability ([8]; first compound 0.01581 µM): 0.698
- relative viability ([8]; first compound 0.05 µM): 0.681
- relative viability ([8]; first compound 0.1581 µM): 0.748
- relative viability ([8]; first compound 0.5 µM): 0.763
- relative viability ([9]; first compound 0.005 µM): 0.206
- relative viability ([9]; first compound 0.01581 µM): 0.246
- relative viability ([9]; first compound 0.05 µM): 0.218
- relative viability ([9]; first compound 0.1581 µM): 0.203
- relative viability ([9]; first compound 0.5 µM): 0.274
- relative viability ([10]; first compound 0.005 µM): 0.115
- relative viability ([10]; first compound 0.01581 µM): 0.139
- relative viability ([10]; first compound 0.05 µM): 0.187
- relative viability ([10]; first compound 0.1581 µM): 0.15
- relative viability ([10]; first compound 0.5 µM): 0.139
- relative viability ([11]; first compound 0.005 µM): 0.857
- relative viability ([11]; first compound 0.01581 µM): 0.961
- relative viability ([11]; first compound 0.05 µM): 0.894
- relative viability ([11]; first compound 0.1581 µM): 0.932
- relative viability ([11]; first compound 0.5 µM): 0.918
- relative viability ([12]; first compound 0.005 µM): 0.644
- relative viability ([12]; first compound 0.01581 µM): 0.224
- relative viability ([12]; first compound 0.05 µM): 0.248
- relative viability ([12]; first compound 0.1581 µM): 0.226
- relative viability ([12]; first compound 0.5 µM): 0.343
- relative viability ([13]; first compound 0.005 µM): 0.196
- relative viability ([13]; first compound 0.01581 µM): 0.265
- relative viability ([13]; first compound 0.05 µM): 0.501
- relative viability ([13]; first compound 0.5 µM): 0.237
- relative viability ([14]; first compound 0.005 µM): 0.783
- relative viability ([14]; first compound 0.01581 µM): 0.741
- relative viability ([14]; first compound 0.05 µM): 0.955
- relative viability ([14]; first compound 0.1581 µM): 0.753
- relative viability ([14]; first compound 0.5 µM): 0.825
- relative viability ([15]; first compound 0.005 µM): 0.24
- relative viability ([15]; first compound 0.01581 µM): 0.383
- relative viability ([15]; first compound 0.05 µM): 0.34
- relative viability ([15]; first compound 0.1581 µM): 0.242
- relative viability ([15]; first compound 0.5 µM): 0.443
- relative viability ([16]; first compound 0.005 µM): 0.823
- relative viability ([16]; first compound 0.01581 µM): 0.964
- relative viability ([16]; first compound 0.05 µM): 0.875
- relative viability ([16]; first compound 0.1581 µM): 0.697
- relative viability ([16]; first compound 0.5 µM): 0.855
- relative viability ([17]; first compound 0.005 µM): 0.692
- relative viability ([17]; first compound 0.05 µM): 0.429
- relative viability ([17]; first compound 0.1581 µM): 0.389
- relative viability ([17]; first compound 0.5 µM): 0.215
- relative viability ([18]; first compound 0.005 µM): 0.612
- relative viability ([18]; first compound 0.01581 µM): 0.686
- relative viability ([18]; first compound 0.05 µM): 0.747
- relative viability ([18]; first compound 0.1581 µM): 0.462
- relative viability ([18]; first compound 0.5 µM): 0.728
- relative viability ([19]; first compound 0.005 µM): 0.431
- relative viability ([19]; first compound 0.01581 µM): 0.4
- relative viability ([19]; first compound 0.05 µM): 0.469
- relative viability ([19]; first compound 0.1581 µM): 0.431
- relative viability ([19]; first compound 0.5 µM): 0.522
- relative viability ([20]; first compound 0.005 µM): 0.686
- relative viability ([20]; first compound 0.01581 µM): 0.795
- relative viability ([20]; first compound 0.05 µM): 0.75
- relative viability ([20]; first compound 0.1581 µM): 0.964
- relative viability ([20]; first compound 0.5 µM): 0.689
- relative viability ([21]; first compound 0.005 µM): 0.249
- relative viability ([21]; first compound 0.01581 µM): 0.382
- relative viability ([21]; first compound 0.05 µM): 0.327
- relative viability ([21]; first compound 0.1581 µM): 0.398
- relative viability ([21]; first compound 0.5 µM): 0.378
- relative viability ([22]; first compound 0.005 µM): 0.807
- relative viability ([22]; first compound 0.01581 µM): 0.784
- relative viability ([22]; first compound 0.05 µM): 0.795
- relative viability ([22]; first compound 0.1581 µM): 0.692
- relative viability ([22]; first compound 0.5 µM): 0.708
